This is an account of results in patent US20180003613A1, “Phenotypic High-Content Assay to Evaluate Drugs” (Texas Tech University System, priority 2015, published 2018).

Entries after “also recorded” stand apart in the source; their conditions may differ.

The test system of one data set is AGT-170 cells. Kind of data set: Phenotypic cell based AGT/peroxisome co-localization high content assay (Pearson's colocalization coefficient), AGT-170 cells. On the set-up: species or system Chinese hamster. The note with it: for % rescue (normalized AGT co-localization): pilot screen, 1536 well, FIG. 3, normalized to AGT-mi (high) and AGT-170 (low) DMSO controls, 4 μM final stated for pilot screen. As for the experimental part: After an overnight incubation time at 37 C, 95% relative humidity and 5% CO2, cells were treated with DMSO or glycerol at different concentrations. After 2 days, cells were fixed with 4% paraformaldehyde, washed 3 times with PBS and permeabilized for 10-30 min with 0.1% Triton X-100 in PBS (PBS-TX). Cells were then stained with a guinea pig anti-AGT “A1” antibody (1:10,000) and a rabbit anti-PMP70 antibody (Ab3421, 1:500) in PBS-TX containing 0.5% goat serum. After 3 PBS washes, anti-rabbit AF488 and anti-guinea pig AF546 secondary antibodies (both at 1:10,000), as well as Hoeschst at 10 ug/mL were added to each well. Images were acquired with a 20× objective on the CellInsight (Cellomics). Puncta labeled with the anti-PMP70 antibody (labeling peroxisomes) and the anti-AGT antibody are detected in the green and red channels, respectively. Colocalization of the two populations of puncta was determined via calculation of the Pearson Colocalization Coefficient using Cellomics' “Colocalization” BioApplication. Here, miAGT cells are non-mutant AGT expressing CHO cells while the mutant AGT cells are references as 170s. The concentration of glycerol used in […] is listed in both the bar graph and the scatterplot. 4 replicates per condition were done and Z′ and S:B are calculated from the untreated AGT 170 cells versus the miAGT cells.
384-well plate assay protocol. Briefly, AGT-170 cells (and AGTmi cells that serve as a positive control) were seeded in black, square, IQ™ 100 μ384-well plates (Aurora, Brooks, Chelmsford, Mass.) at 500 cells/wells using a Flying Reagent Dispenser (FRD, Beckman Coulter, Brea, Calif.). After an overnight incubation at 37° C., 95% relative humidity (RH) and 5% CO2, cells were treated with 100 nL test compounds or DMSO for the positive and negative wells with a pintool transfer unit (GNF). Plates were then placed in an incubator for three days at 37° C., 95% RH and 5% CO2, immunostained and acquired on a high content imager as described below.
Immunostaining. Following treatment and incubation as described above, cells were fixed by the addition of 2× fixation solution (8% paraformaldehyde-PFA) using a FRD. Plates were then washed 3 times with PBS on the Squirt microplate washer using a 12° nozzle tilt and 15 PSI pressure according to the user's manual for washing normal binding cells in 384-well plate format (Brook, Chelmsford, Mass.). Cells were then permeabilized by dispensing a solution of 0.1% Triton X-100 in PBS (PBS-TX) and incubated for 10-30 minutes. Next, cells were stained with a guinea pig anti-AGT “A1” antibody (Danpure's Lab, London, UK; 1:10,000) and a rabbit anti-PMP70 antibody (Abcam, Cambridge, Mass.; 1:500) in PBS-TX containing 0.5% goat serum. After 3 PBS washes, anti-rabbit AF488 and anti-guinea pig AF546 secondary antibodies (Molecular Probes, Eugene, Oreg.; both at 1:10,000), as well as Hoechst at 10 μg/mL were added to each well. Thirty minutes later, plates were washed 3 times, filled with 50 μL/well of PBS and sealed with black tape.
Image acquisition and analysis. Plates were read and images acquired with the CellInsight high content reader (Thermo Fisher Scientific, Pittsburgh, Pa.) using a 20× objective. A detailed and illustrated description of the image acquisition and analysis is presented FIGS. 1A to 1H. A maximum of 9 fields of view per well were acquired, yielding an average of ≈700 cells detected. The nuclear stain channel (Hoechst, 386 nm, 9.8 milliseconds exposure time) was used to focus on the cell layer. Puncta labeled with the anti-PMP70 antibody (labeling peroxisomes) and the anti-AGT antibody were acquired in the green (485 nm, 40 milliseconds exposure) and red (549 nm, 15 milliseconds exposure) channels, respectively. Nuclei were detected using the fixed threshold method with an intensity threshold of 300. Next, a cytoplasmic region of interest was created around each nucleus by creating a ring with a distance of 1 pixel from the nucleus and a width of 8 pixels. […]

The next data set deals with CHO cells. Kind of data set: Cytotoxicity / cell viability seen in the high content assay (HCS images). Format: cell-based, Chinese hamster. As for the experimental part: In order to assess the ability to induce and detect an increase in the Pearson's colocalization coefficient, both AGTmi and AGT-170 cells were treated with glycerol, which is a viscous polyol compound known to enhance the stability of proteins in solution. This co-solvent shifts the native protein to more compact states and inhibits protein-protein aggregation while proteins are being refolded during biological synthesis. […] Concentrations of glycerol higher than 5% affected cell viability and prevented accurate determination of the Pearson's colocalization coefficient; for these reasons, they were avoided. To probe the robustness of the assay, the glycerol titration assay was repeated on two separate plates. […] The Z′-factor, a statistical measurement indicative of HTS-readiness, was calculated between the AGT-170 cells in absence and presence of 5% glycerol and found to be 0.58, and at 0.81 between untreated AGT-170 and AGTmi cells.
Fresh powders, solvated in DMSO, were obtained and reformatted as ten point three fold serial dilutions and proceeded to test them in the same assay as described above. […] All data was imported into the Scripps database, assessed for quality control in terms of Z′, S:B and CV (i.e., quality controlled), and curves were fitted using a 4-parameter algorithm without constraining the top or bottom asymptote. […]

Another data set relates to AGTmi cells. Nature of the data set: AGT/peroxisome co-localization high content assay, AGTmi cells, glycerol treatment. Format: cell-based, Chinese hamster. As for the experimental part: After an overnight incubation time at 37 C, 95% relative humidity and 5% CO2, cells were treated with DMSO or glycerol at different concentrations. After 2 days, cells were fixed with 4% paraformaldehyde, washed 3 times with PBS and permeabilized for 10-30 min with 0.1% Triton X-100 in PBS (PBS-TX). Cells were then stained with a guinea pig anti-AGT “A1” antibody (1:10,000) and a rabbit anti-PMP70 antibody (Ab3421, 1:500) in PBS-TX containing 0.5% goat serum. After 3 PBS washes, anti-rabbit AF488 and anti-guinea pig AF546 secondary antibodies (both at 1:10,000), as well as Hoeschst at 10 ug/mL were added to each well. Images were acquired with a 20× objective on the CellInsight (Cellomics). Puncta labeled with the anti-PMP70 antibody (labeling peroxisomes) and the anti-AGT antibody are detected in the green and red channels, respectively. Colocalization of the two populations of puncta was determined via calculation of the Pearson Colocalization Coefficient using Cellomics' “Colocalization” BioApplication. […] 4 replicates per condition were done and Z′ and S:B are calculated from the untreated AGT 170 cells versus the miAGT cells.
Image acquisition and analysis. Plates were read and images acquired with the CellInsight high content reader (Thermo Fisher Scientific, Pittsburgh, Pa.) using a 20× objective. […]

Where [1] appears, read: fresh powders, ten point three fold serial dilutions, 25 uM highest concentration, FIG. 5.

For the molecule 26-Deoxymonensin B, the “% rescue (normalized AGT co-localization)” value in the data set on AGT-170 cells is listed as 73%.
Take `CC(NCCC(c1ccccc1)c1ccccc1)c1ccccc1` (stereo not shown) [Fendiline]: the “Activity in concentration response curves” value with AGT-170 cells (setting [1]) is “inactive; also recorded: did not show significant activity”. Besides, in the data set with CHO cells (concentration response test, FIG. 5 and FIG. 6), the “Toxicity by eye when observing HCS images” value was “appears toxic at higher concentrations; also recorded: appeared toxic at 10 uM”.
Take `CC[C@@]1([C@@H]2O[C@@H]([C@H]3O[C@@](O)(CO)[C@H](C)C[C@@H]3C)C[C@@H]2C)CC[C@H]([C@]2(C)CC[C@]3(C[C@H](O)[C@@H](C)[C@@H]([C@@H](C)[C@@H](OC)[C@H](C)C(=O)O)O3)O2)O1` [Monensin]: the “EC50 potency from concentration response curves” value in the data set with AGT-170 cells (setting [1]) is “low micromolar potency”. Further, in the data set on AGT-170 cells, the “% rescue (normalized AGT co-localization)” value was found to be 84%.
As for `OCC(O)CO` [glycerol], the “Effect on AGT mutant (colocalization with peroxisomes)” value with AGT-170 cells (1536-well plates, 2 days treatment, FIG. 1) is reported as “stabilizing the AGT mutant”. Moreover, the “fold increase of Pearson's colocalization coefficient” value in the data set with AGT-170 cells (AGT-170 cells, glycerol treatment) is reported as 1.91 fold. The “Pearson's colocalization coefficient after glycerol treatment” value with AGT-170 cells (AGT-170 cells, increasing concentrations of glycerol, n=4, untreated 0.41±0.01) is reported as 0.80±0.04. For the same molecule, the “fold increase of Pearson's values” in the data set with AGTmi cells was approximately 1.10 fold. Further, in the data set with CHO cells (glycerol titration, prevented accurate determination of the Pearson's coefficient), the “Concentration that affected cell viability” value was “higher than 5%”.
